Where two headings read alike, the source gives them in different places.
Assays:
NR1/NR2A NMDAR = target: T1, NR1/NR2A NMDAR (Homo sapiens, UniProt Q05586+Q12879); test: NMDAR-mediated calcium flux assay, NR1/NR2A-transduced HEK293 cells; assay type: cell-based; details: for effect on NMDAR activity at saturating concentrations of ligand: saturating concentrations of both ligands; for potentiation of NMDAR activity at submaximal ligand concentration: submaximal (EC30) D-serine or glutamate; for glutamate concentration dependence of inhibitor potency: CGP070667-protected cells; for ligand-induced NMDAR-mediated calcium influx after protection with the compound and washout: cells cultured 16 h with compound, washed, stimulated with glycine/glutamate; for EC50: MDL105,519-protected cells after washout, read-out: EC50 of activation of NMDAR-mediated calcium flux
T1 construct: cDNAs for the GRIN1 (NM_007327), GRIN2A (NM_000833.3), GRIN2B (NM_000834.3) and Kir2.1 (NM_000891.2) proteins were purchased from GeneCopoeia; expressed in transfected cells; host or cells: HEK293 cells (ATCC) transduced with BacMam baculovirus (pFastBac-CMV-GW-DEST); virus made in Sf9
Experimental: (§2) 10^4 cells per 384-well were infected with baculovirus in suspension, seeded into a clear bottom, poly-D-lysine treated 384-well plate (Corning) and treated with the indicated concentrations of protection compound (100 µM MDL105,519 or 5 µM CGP070667). 16 h after transduction, cell medium was replaced with calcium6-dye (Molecular Devices, R8192) in incubation buffer (HBSS pH 7.5, 20 mM HEPES, 1 mM MgCl2, 1 mM probenecid) and cells were incubated at 37 °C for 2 h. […] In the beginning of each experiment baseline fluorescence (F0) was measure for 5–30 sec. For compound treatment, 10 µl of a 4× stock of compound diluted in assay buffer was added on the FDSS (speed 20 µl/s, tip height 1.8 mm) fluorescence was measured for 5 min (interval 1) before adding 10 µl of a 5× stock of ligand diluted in assay buffer and measurement of fluorescence for 5 min (interval 2). For single addition experiments, the maximal fluorescence ratio was calculated by dividing the maximal fluorescence in interval 1 by the average baseline fluorescence (Fmax/F0). For experiments requiring two additions, the integral of the fluorescence ratio was determined by calculating the area under the curve of the fluorescent ratios in interval 2. Data was analyzed as indicated and was normalized to controls located on the same plate.

NR1/NR2B NMDAR = target: T2, NR1/NR2B NMDAR (Homo sapiens, UniProt Q05586+Q13224); test: NMDAR-mediated calcium flux assay, NR1/NR2B-transduced HEK293 cells; assay type: cell-based
T2 construct: cDNAs for the GRIN1 (NM_007327), GRIN2A (NM_000833.3), GRIN2B (NM_000834.3) and Kir2.1 (NM_000891.2) proteins were purchased from GeneCopoeia; expressed in transfected cells; host or cells: HEK293 cells (ATCC) transduced with BacMam baculovirus (pFastBac-CMV-GW-DEST)
Experimental: 16 h after transduction, cell medium was replaced with calcium6-dye (Molecular Devices, R8192) in incubation buffer (HBSS pH 7.5, 20 mM HEPES, 1 mM MgCl2, 1 mM probenecid) and cells were incubated at 37 °C for 2 h. Before measurement, the dye-solution was replaced with 30 ul assay buffer (HBSS pH 7.5, 20 mM HEPES, 1.8 mM CaCl2). Cells were allowed to rest for 10 min at room temperature before measuring calcium flux on a FDSS7000 plate reader (Hamamatsu) with the following settings: 1 sec measurement interval, 200 ms exposure time, 2 × 2 binning, Ex480 nm:Em540 nm, sensitivity 1–3. In the beginning of each experiment baseline fluorescence (F0) was measure for 5–30 sec. For compound treatment, 10 µl of a 4× stock of compound diluted in assay buffer was added on the FDSS (speed 20 µl/s, tip height 1.8 mm) fluorescence was measured for 5 min (interval 1) before adding 10 µl of a 5× stock of ligand diluted in assay buffer and measurement of fluorescence for 5 min (interval 2). For single addition experiments, the maximal fluorescence ratio was calculated by dividing the maximal fluorescence in interval 1 by the average baseline fluorescence (Fmax/F0). For experiments requiring two additions, the integral of the fluorescence ratio was determined by calculating the area under the curve of the fluorescent ratios in interval 2. Data was analyzed as indicated and was normalized to controls located on the same plate.

NR1/NR2A-V783F = target: T3, NR1/NR2A-V783F (Homo sapiens, UniProt Q05586+Q12879, V783F); test: NMDAR-mediated calcium flux assay, NR1/NR2A-V783F mutant in HEK293 cells; assay type: cell-based; details: MDL105,519-protected cells
T3 construct: cDNAs for the GRIN1 (NM_007327), GRIN2A (NM_000833.3), GRIN2B (NM_000834.3) and Kir2.1 (NM_000891.2) proteins were purchased from GeneCopoeia; expressed in transfected cells; host or cells: HEK293 cells transduced with BacMam baculovirus
Experimental: 16 h after transduction, cell medium was replaced with calcium6-dye (Molecular Devices, R8192) in incubation buffer (HBSS pH 7.5, 20 mM HEPES, 1 mM MgCl2, 1 mM probenecid) and cells were incubated at 37 °C for 2 h. Before measurement, the dye-solution was replaced with 30 ul assay buffer (HBSS pH 7.5, 20 mM HEPES, 1.8 mM CaCl2). Cells were allowed to rest for 10 min at room temperature before measuring calcium flux on a FDSS7000 plate reader (Hamamatsu) with the following settings: 1 sec measurement interval, 200 ms exposure time, 2 × 2 binning, Ex480 nm:Em540 nm, sensitivity 1–3. In the beginning of each experiment baseline fluorescence (F0) was measure for 5–30 sec. For compound treatment, 10 µl of a 4× stock of compound diluted in assay buffer was added on the FDSS (speed 20 µl/s, tip height 1.8 mm) fluorescence was measured for 5 min (interval 1) before adding 10 µl of a 5× stock of ligand diluted in assay buffer and measurement of fluorescence for 5 min (interval 2). For single addition experiments, the maximal fluorescence ratio was calculated by dividing the maximal fluorescence in interval 1 by the average baseline fluorescence (Fmax/F0). For experiments requiring two additions, the integral of the fluorescence ratio was determined by calculating the area under the curve of the fluorescent ratios in interval 2. […]

[1] = tested on: NR1/2A-transduced HEK293 cells; test: Cell viability (CellTiterGlo) of NR1/2A-transduced HEK293 cells, protection from excitotoxicity; assay type: cell-based, human
Experimental: (§1) Cell viability was assessed Cell Titer Glo (Promega) and measured on an Envision plate reader (PerkinElmer).

HEK293 cells = test: Cell viability (CellTiterGlo) of HEK293 cells, toxicity of the compound itself; assay type: cell-based, human; details: 16 h treatment
Experimental: as §1

NR1/NR2A-H44A/E226A = test: NMDAR-mediated calcium flux assay, NR1/NR2A-H44A/E226A mutant in HEK293 cells; details: at the EC50 of D-serine
Experimental: as §2

[2] = HEK293 cells after protection with MDL105,519, stimulation with EC80 of both ligands, mean, n > 3, n.d. = not detectable, read-out: IC50 NR2A
[3] = HEK293 cells after protection with MDL105,519, stimulation with EC80 of both ligands, mean, n > 3, n.d. = not detectable, read-out: IC50 NR2B
[4] = 16 h after transduction with concurrent treatment

T2 sequence (Q13224 27-1484, other chains not shown): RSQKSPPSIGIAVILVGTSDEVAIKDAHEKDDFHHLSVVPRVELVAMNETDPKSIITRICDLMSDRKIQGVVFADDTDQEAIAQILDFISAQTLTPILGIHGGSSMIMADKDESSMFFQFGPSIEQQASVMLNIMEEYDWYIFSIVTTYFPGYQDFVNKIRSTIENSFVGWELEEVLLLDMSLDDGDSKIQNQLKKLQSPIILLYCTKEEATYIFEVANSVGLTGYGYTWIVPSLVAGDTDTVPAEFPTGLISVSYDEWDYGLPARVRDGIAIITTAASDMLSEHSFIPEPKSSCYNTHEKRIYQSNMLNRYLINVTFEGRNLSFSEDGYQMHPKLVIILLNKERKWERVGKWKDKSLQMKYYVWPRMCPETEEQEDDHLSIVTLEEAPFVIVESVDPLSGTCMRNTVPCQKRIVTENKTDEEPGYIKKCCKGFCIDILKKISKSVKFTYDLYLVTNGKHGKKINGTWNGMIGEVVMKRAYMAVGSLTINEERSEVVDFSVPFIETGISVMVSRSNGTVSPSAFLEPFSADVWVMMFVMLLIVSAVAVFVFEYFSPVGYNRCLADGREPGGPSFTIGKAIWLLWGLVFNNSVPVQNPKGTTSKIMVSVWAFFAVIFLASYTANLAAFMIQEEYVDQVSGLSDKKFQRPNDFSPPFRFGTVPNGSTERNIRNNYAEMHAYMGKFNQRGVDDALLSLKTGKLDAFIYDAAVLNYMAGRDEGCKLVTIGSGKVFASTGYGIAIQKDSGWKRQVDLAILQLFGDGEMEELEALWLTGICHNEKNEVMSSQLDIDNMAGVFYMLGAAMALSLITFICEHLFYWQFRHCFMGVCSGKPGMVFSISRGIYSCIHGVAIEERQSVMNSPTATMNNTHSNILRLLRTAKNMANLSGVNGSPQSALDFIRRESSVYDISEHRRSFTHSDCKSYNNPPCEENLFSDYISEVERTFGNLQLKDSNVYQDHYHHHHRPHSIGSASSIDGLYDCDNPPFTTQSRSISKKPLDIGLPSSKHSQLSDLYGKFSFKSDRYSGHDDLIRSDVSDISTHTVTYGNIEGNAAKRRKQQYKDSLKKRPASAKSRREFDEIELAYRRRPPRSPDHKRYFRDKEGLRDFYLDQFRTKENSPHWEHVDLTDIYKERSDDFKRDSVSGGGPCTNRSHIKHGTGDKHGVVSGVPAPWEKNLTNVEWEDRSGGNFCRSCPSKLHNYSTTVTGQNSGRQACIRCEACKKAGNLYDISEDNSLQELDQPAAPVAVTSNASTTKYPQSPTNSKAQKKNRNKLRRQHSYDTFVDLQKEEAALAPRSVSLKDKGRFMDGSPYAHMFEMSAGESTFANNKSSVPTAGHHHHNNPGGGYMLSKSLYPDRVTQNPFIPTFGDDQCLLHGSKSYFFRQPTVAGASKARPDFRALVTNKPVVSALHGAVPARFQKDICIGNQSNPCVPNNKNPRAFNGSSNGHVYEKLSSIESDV
T1 sequence (Q12879 23-1464, other chains not shown): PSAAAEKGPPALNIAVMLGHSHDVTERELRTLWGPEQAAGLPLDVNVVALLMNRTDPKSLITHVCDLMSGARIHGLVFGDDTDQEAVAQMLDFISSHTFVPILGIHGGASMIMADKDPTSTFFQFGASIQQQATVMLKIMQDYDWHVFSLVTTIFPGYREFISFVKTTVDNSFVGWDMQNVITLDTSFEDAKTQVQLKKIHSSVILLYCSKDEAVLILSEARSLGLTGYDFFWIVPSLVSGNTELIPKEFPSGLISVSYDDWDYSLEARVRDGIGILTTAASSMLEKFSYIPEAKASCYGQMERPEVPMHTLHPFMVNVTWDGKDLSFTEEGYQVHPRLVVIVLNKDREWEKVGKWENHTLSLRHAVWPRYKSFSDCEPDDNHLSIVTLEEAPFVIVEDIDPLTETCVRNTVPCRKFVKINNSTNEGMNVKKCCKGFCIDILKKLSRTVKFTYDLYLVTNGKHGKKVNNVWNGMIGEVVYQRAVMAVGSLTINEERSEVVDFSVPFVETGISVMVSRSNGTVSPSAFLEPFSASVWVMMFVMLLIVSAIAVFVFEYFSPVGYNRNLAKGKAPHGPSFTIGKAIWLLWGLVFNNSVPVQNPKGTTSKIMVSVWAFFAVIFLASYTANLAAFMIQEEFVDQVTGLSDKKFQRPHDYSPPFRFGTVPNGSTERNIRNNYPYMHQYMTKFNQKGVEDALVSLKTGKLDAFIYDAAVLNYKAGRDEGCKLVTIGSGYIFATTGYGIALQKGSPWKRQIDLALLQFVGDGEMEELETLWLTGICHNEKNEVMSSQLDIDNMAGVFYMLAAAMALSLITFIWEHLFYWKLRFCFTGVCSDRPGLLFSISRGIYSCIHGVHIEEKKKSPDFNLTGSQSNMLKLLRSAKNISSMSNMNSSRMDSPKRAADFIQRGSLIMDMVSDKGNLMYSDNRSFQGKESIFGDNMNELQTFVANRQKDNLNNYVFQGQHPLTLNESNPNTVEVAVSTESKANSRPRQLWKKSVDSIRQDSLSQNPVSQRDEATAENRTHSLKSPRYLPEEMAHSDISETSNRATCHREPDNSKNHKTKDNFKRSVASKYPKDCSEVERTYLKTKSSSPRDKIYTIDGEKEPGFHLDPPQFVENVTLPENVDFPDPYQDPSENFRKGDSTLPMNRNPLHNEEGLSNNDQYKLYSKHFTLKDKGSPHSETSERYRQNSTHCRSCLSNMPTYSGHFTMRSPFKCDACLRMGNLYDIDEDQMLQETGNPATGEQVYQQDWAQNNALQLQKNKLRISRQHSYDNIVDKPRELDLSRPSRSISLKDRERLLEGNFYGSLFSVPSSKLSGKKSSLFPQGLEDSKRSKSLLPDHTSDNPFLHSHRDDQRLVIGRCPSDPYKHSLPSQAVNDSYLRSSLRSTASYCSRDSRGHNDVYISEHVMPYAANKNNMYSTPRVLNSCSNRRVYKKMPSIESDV
T3 sequence (Q12879 23-1464 V783F, other chains not shown): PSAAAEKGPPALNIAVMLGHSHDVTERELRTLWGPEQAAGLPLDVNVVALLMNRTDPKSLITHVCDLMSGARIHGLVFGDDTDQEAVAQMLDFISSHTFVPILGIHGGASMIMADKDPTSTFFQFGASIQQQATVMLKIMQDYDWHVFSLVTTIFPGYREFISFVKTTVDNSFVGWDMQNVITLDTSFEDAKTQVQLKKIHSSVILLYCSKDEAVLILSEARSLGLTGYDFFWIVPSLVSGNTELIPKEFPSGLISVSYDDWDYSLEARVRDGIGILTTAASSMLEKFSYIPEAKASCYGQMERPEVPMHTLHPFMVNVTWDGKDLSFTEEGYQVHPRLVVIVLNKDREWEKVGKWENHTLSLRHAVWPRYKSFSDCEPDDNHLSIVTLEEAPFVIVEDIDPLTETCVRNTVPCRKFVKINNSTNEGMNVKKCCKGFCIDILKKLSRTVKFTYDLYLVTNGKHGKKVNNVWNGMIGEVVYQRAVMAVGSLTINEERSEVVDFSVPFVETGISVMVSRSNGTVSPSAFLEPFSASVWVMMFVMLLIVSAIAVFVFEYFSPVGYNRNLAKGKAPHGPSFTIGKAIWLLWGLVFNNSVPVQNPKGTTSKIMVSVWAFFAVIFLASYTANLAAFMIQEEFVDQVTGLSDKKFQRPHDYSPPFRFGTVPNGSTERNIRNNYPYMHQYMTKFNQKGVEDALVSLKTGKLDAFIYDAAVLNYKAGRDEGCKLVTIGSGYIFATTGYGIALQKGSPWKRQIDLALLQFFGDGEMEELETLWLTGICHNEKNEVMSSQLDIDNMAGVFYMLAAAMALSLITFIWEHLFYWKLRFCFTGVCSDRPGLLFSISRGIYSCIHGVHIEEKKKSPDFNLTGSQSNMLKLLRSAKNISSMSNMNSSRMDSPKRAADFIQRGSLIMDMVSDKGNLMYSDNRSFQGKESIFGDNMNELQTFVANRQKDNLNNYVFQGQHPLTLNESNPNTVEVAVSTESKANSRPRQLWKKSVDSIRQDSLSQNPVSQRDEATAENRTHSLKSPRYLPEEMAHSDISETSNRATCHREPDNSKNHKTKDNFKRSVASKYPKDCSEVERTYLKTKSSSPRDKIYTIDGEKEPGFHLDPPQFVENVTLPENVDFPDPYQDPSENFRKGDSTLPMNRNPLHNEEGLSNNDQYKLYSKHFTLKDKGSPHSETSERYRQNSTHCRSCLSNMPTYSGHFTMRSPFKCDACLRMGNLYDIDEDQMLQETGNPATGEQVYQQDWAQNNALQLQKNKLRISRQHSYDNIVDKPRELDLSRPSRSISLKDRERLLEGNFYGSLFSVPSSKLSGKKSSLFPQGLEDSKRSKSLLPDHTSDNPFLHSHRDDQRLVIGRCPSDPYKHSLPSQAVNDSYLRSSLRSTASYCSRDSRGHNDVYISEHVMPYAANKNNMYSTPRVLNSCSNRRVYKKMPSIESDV

## C[C@H](NC(c1cccc2[nH]c(=O)c(=O)[nH]c12)P(=O)(O)O)c1ccc(Br)cc1 (stereo partly shown) [NVP-AAM077]
NR1/NR2A NMDAR; [2]
  IC50: 2460 nM
NR1/NR2B NMDAR; [3]
  IC50: 11900 nM

## CCN(Cc1cc(=O)n2c3c(sc2n1)CCC3)c1ccc(F)cc1 [GNE-8324]
NR1/NR2A NMDAR
  effect on NMDAR activity at saturating concentrations of ligand: enhanced NMDAR activity
  potentiation of NMDAR activity at submaximal ligand concentration: concentration-dependent potentiation
NR1/NR2B NMDAR
  effect on NR1/2B-mediated calcium flux: no effect
NR1/NR2A-V783F
  sensitivity of NR1/2A-V783F to the compound: complete loss of sensitivity

## O=C(O)C(=Cc1c(C(=O)O)[nH]c2cc(Cl)cc(Cl)c12)c1ccccc1 [MDL105,519]
NR1/NR2A NMDAR
  glutamate concentration dependence of inhibitor potency: only minor effects
  ligand-induced NMDAR-mediated calcium influx after protection with the compound and washout: enabled the largest dynamic range of NMDAR-activity
NR1/NR2A NMDAR; [2]
  IC50: 620 nM
NR1/NR2A NMDAR; MDL105,519-protected cells
  shift of inhibitor dose response curve, EC100 vs EC20 of D-serine: right shift
NR1/NR2B NMDAR; [3]
  IC50: 1650 nM
[1]; [4]
  protection from NMDAR-mediated excitotoxicity (cell viability): dose-dependent rescue of cell viability
[1]; overnight (16 h) treatment of NR1/2A-transduced cells, screen of 120 compounds
  cell viability compared to non-transduced cells: > 70%

## CNC1(c2ccccc2Cl)CCCCC1=O (stereo not shown) [Ketamine]
NR1/NR2A NMDAR
  IC50: 23000 nM
  ligand-induced NMDAR-mediated calcium influx after protection with the compound and washout: did not observe significant ligand-induced NMDAR-mediated calcium influx
NR1/NR2B NMDAR
  IC50: 12100 nM
[1]; [4]
  protection from NMDAR-mediated excitotoxicity (cell viability): could be rescued
HEK293 cells
  toxic effect on HEK293 cells: dose-dependent toxic effect

## [Cl-].[Cl-].[Mg+2] [MgCl2, magnesium chloride]
NR1/NR2A NMDAR; co-transduction with Kir2.1 (KCNJ2), MDL105,519-protected cells
  sensitivity of NR1/NR2A to inhibition with increasing Kir2.1 baculovirus titer: increased sensitivity
[1]; [4]
  concentration giving partial rescue of cell viability: > 10 mM
  protection from NMDAR-mediated excitotoxicity (cell viability): partial rescue

## N[C@@H](CO)C(=O)O [L-serine]
NR1/NR2A NMDAR; MDL105,519-protected cells, saturating glutamate
  right shift in potency as compared to D-serine: ~ 200 fold

## O=c1[nH]c2cc(Cl)ccc2c(O)c1-c1cccc(Oc2ccccc2)c1 [L701,324]
NR1/NR2A NMDAR; [2]
  IC50: 1450 nM
NR1/NR2B NMDAR; [3]
  IC50: 1910 nM

## N[C@H](CO)C(=O)O [D-serine]
NR1/NR2A NMDAR
  EC50: ~9000 nM

## O=C(O)CN(CCN(CC(=O)O)CC(=O)O)CC(=O)O [EDTA]
NR1/NR2A-H44A/E226A; compared to wildtype NR2A
  sensitivity of the double mutant to activation: less sensitive

## [Zn+2] [zinc]
NR1/NR2A NMDAR; MDL105,519-protected cells, at the EC50 of D-serine, read-out: IC50 for zinc, wildtype receptor
  IC50: ~100 nM
NR1/NR2A-H44A/E226A; read-out: IC50 for zinc, NR2A-H44A/E226A double mutant, MDL105,519-protected cells
  IC50: > 10000 nM

## pregnenolone sulfate [PS]
NR1/NR2A NMDAR
  effect on NMDAR activity at saturating concentrations of ligand: supramaximal activation
  potentiation of NMDAR activity at submaximal ligand concentration: enhanced NMDAR activity
NR1/NR2B NMDAR; saturating concentrations of both ligands
  effect on NMDAR activity at saturating concentrations of ligand: supramaximal activation
NR1/NR2B NMDAR; submaximal (EC30) D-serine or glutamate
  potentiation of NMDAR activity at submaximal ligand concentration: enhanced NMDAR activity

## C[C@@H](CN1CCC(Cc2ccccc2)CC1)[C@@H](O)c1ccc(O)cc1 [RO25-6981]
NR1/NR2B NMDAR; [3]
  IC50: 100 nM

## NCC(=O)O [glycine]
NR1/NR2A NMDAR; CGP070667-protected cells after washout
  sensitivity of NMDAR-mediated calcium flux to ligand: insensitivity
NR1/NR2A NMDAR
  EC50: ~12000 nM

## C[C@]12N[C@H](Cc3ccccc31)c1ccccc12 [MK801]
NR1/NR2A NMDAR
  glutamate concentration dependence of inhibitor potency: only minor effects
  ligand-induced NMDAR-mediated calcium influx after protection with the compound and washout: did not observe significant ligand-induced NMDAR-mediated calcium influx
NR1/NR2A NMDAR; after washout of MDL105,519, no ligand
  change of signal on NMDAR block in the absence of ligand (basal activity): only a weak decrease of signal
NR1/NR2B NMDAR; [3]
  IC50: 150 nM
[1]; [4]
  protection from NMDAR-mediated excitotoxicity (cell viability): could be rescued

Source: paper PMC5599507 (Scientific Reports, 2017)
